One data set is described as follows: Evaluation of Brain-Penetration and Bone-Seeking Properties of the Labeled Compound in Mouse. It counts as in vivo. To be noted: male ICR mouse, intravenous, 2 min. The protocol:
Separated HPLC fractions containing [^18F] THK-702, [^18F] THK-761, [^18F] THK-763 or [^18F] BF-227 obtained by above mentioned synthesis of label were diluted with distilled water (about 20 mL), loaded thereon Sep-PaktC18 cartridge (produced by Waters Corporation). And the cartridge was washed by distilled water (5 to 10 mL), and labeled compound by EtOH (3 to 5 mL). A proper amount of 5% polysorbate 80-ethanol solution was added in the EtOH eluate and solvent was distilled away by a rotary evaporator with heating at 80° C. Obtained residue (mixture of the label compound and polysorbate 80) was dissolved in saline to prepare the labeled compound-containing saline. The radiochemical purity of chemical after the preparation was 95% or more.
Saline containing [^18F] BF-227, [^18F] THK-702, [^18F] THK-761 or [^18F] THK-763 was administered by intravenous injection through the tail vein of male ICR mouse (6 to 7 week), and brain-penetration and bone-seeking properties of each labeled compound was evaluated in the terms of seeking property of radioactivity in brain-tissue and bone tissue at 2, 30, 60 minutes after the injection.
The radiochemical purity of the saline containing the labeled compound used in the present invention was 95% or more, and the specific radioactivity was 18.5 to 148 GBq/μmol. 1.11 to 2.22 Mbq of the labeled compound per mouse was administrated. In evaluation of seeking property of radioactivity, the proportion of radioactivity in unit weight of evaluated tissue to all dosed radioactivity (% Injected Dose/g of tissue; % ID/g) was used as an index. Gamma counter (1480 WIZARD, produced by PerkinElmer, Inc.) was used in the measurement of radioactivity. Experimental procedures will be explained as follows. The labeled compound was administered by intravenous injection through the tail vein, 2, 30 and 60 minutes after the injection, cervical dislocation of the mouse was conducted under ether anesthesia, and blood was collected from heart rapidly. And then, whole brain (containing cerebellum and brain-stem) and thighbone of mouse were extracted. Moreover, radioactivity and the tissue weight of each sample were measured, the resulting data was used for calculating % ID/g.
For the compound `CN(C)c1ncc(C=Cc2nc3ccc(OCCF)cc3o2)s1` [[^18F]BF-227, 2-[2-(2-dimethylaminothiazol-5-yl)ethenyl]-6-(2-fluoroethoxy)benzoxazol, reference compound], the Brain radioactivity amounted to 6.05 % ID/g and the blood radioactivity is 2.93 % ID/g.
Take `CN(C)c1ncc(/C=C/c2nc3ccc(OC(CO)CF)cc3o2)s1` (stereo not shown) [[^18F]THK-763]: the Brain radioactivity was found to be 4.64 % ID/g and the blood radioactivity is recorded as 3.65 % ID/g.
Regarding `CNc1ncc(/C=C/c2nc3ccc(OC(CO)CF)cc3o2)s1` (stereo not shown) [[^18F]THK-761], the Brain radioactivity was found to be 1.67 % ID/g and the blood radioactivity amounted to 3.16 % ID/g.
In the case of `OCC(CF)Oc1ccc2nc(/C=C/c3cnc(N4CCOCC4)s3)oc2c1` (stereo not shown) [[^18F]THK-702], the Brain radioactivity is 4.15 % ID/g and the blood radioactivity turned out to be 3.34 % ID/g.

The data set is the same for the next values; noted with them: male ICR mouse, intravenous, 2 min, thighbone.
Regarding `CN(C)c1ncc(C=Cc2nc3ccc(OCCF)cc3o2)s1` [[^18F]BF-227, 2-[2-(2-dimethylaminothiazol-5-yl)ethenyl]-6-(2-fluoroethoxy)benzoxazol, reference compound], the bone radioactivity stood at 1.59 % ID/g.
The same measure, in the same setting: with `CN(C)c1ncc(/C=C/c2nc3ccc(OC(CO)CF)cc3o2)s1` (stereo not shown) [[^18F]THK-763] the figure was 1.84 % ID/g; with `CNc1ncc(/C=C/c2nc3ccc(OC(CO)CF)cc3o2)s1` (stereo not shown) [[^18F]THK-761], 1.36 % ID/g; with `OCC(CF)Oc1ccc2nc(/C=C/c3cnc(N4CCOCC4)s3)oc2c1` (stereo not shown) [[^18F]THK-702], 1.95 % ID/g.

The same data set, now with this note: male ICR mouse, intravenous, 30 min.
For `CN(C)c1ncc(C=Cc2nc3ccc(OCCF)cc3o2)s1` [[^18F]BF-227, 2-[2-(2-dimethylaminothiazol-5-yl)ethenyl]-6-(2-fluoroethoxy)benzoxazol, reference compound], the Brain radioactivity was determined as 1.91 % ID/g and the blood radioactivity is listed as 2.14 % ID/g.
As to `CN(C)c1ncc(/C=C/c2nc3ccc(OC(CO)CF)cc3o2)s1` (stereo not shown) [[^18F]THK-763], the Brain radioactivity was determined as 0.53 % ID/g and the blood radioactivity amounted to 1.19 % ID/g.
The corresponding values for `CNc1ncc(/C=C/c2nc3ccc(OC(CO)CF)cc3o2)s1` (stereo not shown) [[^18F]THK-761] are 0.22 % ID/g and 0.78 % ID/g.
For the compound `OCC(CF)Oc1ccc2nc(/C=C/c3cnc(N4CCOCC4)s3)oc2c1` (stereo not shown) [[^18F]THK-702], the Brain radioactivity was determined as 0.53 % ID/g and the blood radioactivity is reported as 1.06 % ID/g.

The data set is the same for the next values; noted with them: male ICR mouse, intravenous, 30 min, thighbone.
As for `CN(C)c1ncc(C=Cc2nc3ccc(OCCF)cc3o2)s1` [[^18F]BF-227, 2-[2-(2-dimethylaminothiazol-5-yl)ethenyl]-6-(2-fluoroethoxy)benzoxazol, reference compound], the bone radioactivity is 4.38 % ID/g.
Turning to `CN(C)c1ncc(/C=C/c2nc3ccc(OC(CO)CF)cc3o2)s1` (stereo not shown) [[^18F]THK-763], the bone radioactivity came out at 0.88 % ID/g.
On the same count and under the same terms, with `CNc1ncc(/C=C/c2nc3ccc(OC(CO)CF)cc3o2)s1` (stereo not shown) [[^18F]THK-761] the figure was 0.88 % ID/g; with `OCC(CF)Oc1ccc2nc(/C=C/c3cnc(N4CCOCC4)s3)oc2c1` (stereo not shown) [[^18F]THK-702], 0.92 % ID/g.

Staying with this data set, now noted: male ICR mouse, intravenous, 60 min.
Turning to `CN(C)c1ncc(C=Cc2nc3ccc(OCCF)cc3o2)s1` [[^18F]BF-227, 2-[2-(2-dimethylaminothiazol-5-yl)ethenyl]-6-(2-fluoroethoxy)benzoxazol, reference compound], the Brain radioactivity came to 1.67 % ID/g and the blood radioactivity was 2.09 % ID/g.
For `CN(C)c1ncc(/C=C/c2nc3ccc(OC(CO)CF)cc3o2)s1` (stereo not shown) [[^18F]THK-763] the same measures were 0.28 % ID/g and 0.64 % ID/g.
For `CNc1ncc(/C=C/c2nc3ccc(OC(CO)CF)cc3o2)s1` (stereo not shown) [[^18F]THK-761] the same measures were 0.13 % ID/g and 0.34 % ID/g.
In the case of `OCC(CF)Oc1ccc2nc(/C=C/c3cnc(N4CCOCC4)s3)oc2c1` (stereo not shown) [[^18F]THK-702], the Brain radioactivity was found to be 0.35 % ID/g and the blood radioactivity is recorded as 0.67 % ID/g.

The data set is the same for the next values; noted with them: male ICR mouse, intravenous, 60 min, thighbone.
Consider `CN(C)c1ncc(C=Cc2nc3ccc(OCCF)cc3o2)s1` [[^18F]BF-227, 2-[2-(2-dimethylaminothiazol-5-yl)ethenyl]-6-(2-fluoroethoxy)benzoxazol, reference compound], for which the bone radioactivity was 7.04 % ID/g.
Same read-out and setting: with `CN(C)c1ncc(/C=C/c2nc3ccc(OC(CO)CF)cc3o2)s1` (stereo not shown) [[^18F]THK-763] the figure was 1.38 % ID/g; with `CNc1ncc(/C=C/c2nc3ccc(OC(CO)CF)cc3o2)s1` (stereo not shown) [[^18F]THK-761], 0.95 % ID/g; with `OCC(CF)Oc1ccc2nc(/C=C/c3cnc(N4CCOCC4)s3)oc2c1` (stereo not shown) [[^18F]THK-702], 1.16 % ID/g.

The same data set, now with this note: mouse, 2 to 60 minutes after intravenous injection.
`CN(C)c1ncc(C=Cc2nc3ccc(OCCF)cc3o2)s1` [[^18F]BF-227, 2-[2-(2-dimethylaminothiazol-5-yl)ethenyl]-6-(2-fluoroethoxy)benzoxazol, reference compound]: the “Bone-seeking property (bone accumulation)” value (“Bone-seeking property” for short) is reported as “significant time-dependent bone-seeking property after the injection has been found”.
In the case of `CN(C)c1ncc(/C=C/c2nc3ccc(OC(CO)CF)cc3o2)s1` (stereo not shown) [[^18F]THK-763], the “Bone-seeking property” value was “have not found”.
For the compound `CNc1ncc(/C=C/c2nc3ccc(OC(CO)CF)cc3o2)s1` (stereo not shown) [[^18F]THK-761], the “Bone-seeking property” value is recorded as “have not found”.
On to `OCC(CF)Oc1ccc2nc(/C=C/c3cnc(N4CCOCC4)s3)oc2c1` (stereo not shown) [[^18F]THK-702], for which the “Bone-seeking property” value is given as “have not found”.

Staying with this data set, now noted: mouse, compared with [^18F] BF-227.
As to `CN(C)c1ncc(/C=C/c2nc3ccc(OC(CO)CF)cc3o2)s1` (stereo not shown) [[^18F]THK-763], the Washout from brain entry was “excellent characteristics in washout from brain more than [^18F] BF-227”.
Consider `CNc1ncc(/C=C/c2nc3ccc(OC(CO)CF)cc3o2)s1` (stereo not shown) [[^18F]THK-761], for which the Washout from brain entry was “excellent characteristics in washout from brain more than [^18F] BF-227”.
As for `OCC(CF)Oc1ccc2nc(/C=C/c3cnc(N4CCOCC4)s3)oc2c1` (stereo not shown) [[^18F]THK-702], the Washout from brain result was “excellent characteristics in washout from brain more than [^18F] BF-227”.
